This note sets out measurements from ChEMBL document CHEMBL4414679, “Discovery of 4,6-pyrimidinediamine derivatives as novel dual EGFR/FGFR inhibitors aimed EGFR/FGFR1-positive NSCLC” (Eur J Med Chem, 2020).

Data set [1] can be described thus: Induction of apoptosis in gefitinib-insensitive human HCC827GR cells assessed as viable cells at 1 uM measured after 24 hrs by Annexin-V/propidium iodide staining-based flow cytometric analysis (reference value: 90.8%). In kind it is functional. Conditions: read-out: Activity.
Data set [2] has as its target T1, Epidermal growth factor receptor (Homo sapiens, UniProt P00533). Description: Inhibition of N-terminal GST-tagged human EGFR (d746-750AA) expressed in baculovirus at 10 uM using FAM-labelled peptide as substrate pre-incubated for 10 mins followed by substrate addition by mobility shift assay relative to control.
Data set [3] in a line: Half-life in Sprague-Dawley rat at 30 mg/kg, po measured upto 24 hrs by UPLC-MS/MS. Conditions: in vivo. In kind it is ADME, organism-based.
Data set [4] concerns the target Fibroblast growth factor receptor 1 (Homo sapiens, UniProt P11362). The experiment in a line: Inhibition of FGFR in serum-starved human H520 cells assessed as reduction in FGFR-induced AKT phosphorylation upto 10 uM incubated for 1 hr by Western blot analysis. For orientation: A western blot detects proteins with antibodies after separation by electrophoresis.
For data set [5], the system named is NCI-H226. The experiment in a line: Induction of apoptosis in human NCI-H226 cells assessed as viable cells at 5 uM measured after 24 hrs by Annexin-V/propidium iodide staining-based flow cytometric analysis (reference value: 93.4%). In kind it is functional. Conditions: NCI-H226, 24 h, read-out: Activity.
Data set [6] has as its target CDK2/Cyclin A2 (Homo sapiens) (UniProt P24941+P20248). The experiment in a line: Inhibition of CDK2/cyclin A2 (unknown origin) at 10 uM using FAM-labelled peptide as substrate pre-incubated for 10 mins followed by substrate addition by mobility shift assay relative to control. In kind it is protein-complex assay.
Data set [7] addresses CDK7/Cyclin H/MNAT1 (Homo sapiens) (UniProt P51946+P50613+P51948). Description: Inhibition of full length N-terminal GST-tagged human CDK7 (1 to 346 AA) coexpressed with CyclinH (1 to 323 AA)and MAT1 (1 to 309) in baculovirus at 10 uM using FAM-labelled peptide as substrate pre-incubated for 10 mins followed by substrate addition by mobility shift assay relative to control. In kind it is protein-complex assay.

Data set [8] addresses Hepatocyte growth factor receptor (Homo sapiens) (UniProt P08581). The experiment in a line: Inhibition of N-terminal GST-tagged human MET cytoplasmic domain (956 to 1360 AA) expressed in baculovirus at 10 uM using FAM-labelled peptide as substrate pre-incubated for 10 mins followed by substrate addition by mobility shift assay relative to control.
Data set [9] deals with NCI-H226. Description: Induction of cell cycle arrest in human NCI-H226 cells assessed as accumulation of cells at G1 measured after 24 hrs by flow cytometry. In kind it is functional, cell-based. (Flow cytometry measures light scatter and fluorescence of single cells or particles in a stream.)
The nature of data set [10]: AUC (0 to infinity) in Sprague-Dawley rat at 30 mg/kg, po measured upto 24 hrs by UPLC-MS/MS. Also noted: dose 30 mg/kg, route oral, time infinity. In kind it is ADME, organism-based. Conditions: in vivo.
Data set [11] in a line: Induction of apoptosis in gefitinib-insensitive human HCC827GR cells assessed as viable cells at 2.5 uM measured after 24 hrs by Annexin-V/propidium iodide staining-based flow cytometric analysis (reference value: 90.8%). In kind it is functional. Conditions: read-out: Activity.
For data set [12], the target named is T1, Epidermal growth factor receptor. Description: Inhibition of EGFR in human PC9 cells assessed as reduction in EGF-induced AKT phosphorylation upto 10 uM incubated for 1 hr by Western blot analysis. In kind it is cell-based.
The species entered for the next data set is Homo sapiens. Description: Inhibition of cell migration in gefitinib-insensitive human HCC827GR cells incubated upto 72 hrs by wound healing assay. In kind it is functional.
The test system of data set [13] is NCI-H226. Description: Induction of apoptosis in human NCI-H226 cells assessed as viable cells at 10 uM measured after 24 hrs by Annexin-V/propidium iodide staining-based flow cytometric analysis (reference value: 93.4%). In kind it is functional. Conditions: NCI-H226, 24 h, read-out: Activity.

Activity calls are given as the source filed them.

T1 sequence (P00533 whole entry): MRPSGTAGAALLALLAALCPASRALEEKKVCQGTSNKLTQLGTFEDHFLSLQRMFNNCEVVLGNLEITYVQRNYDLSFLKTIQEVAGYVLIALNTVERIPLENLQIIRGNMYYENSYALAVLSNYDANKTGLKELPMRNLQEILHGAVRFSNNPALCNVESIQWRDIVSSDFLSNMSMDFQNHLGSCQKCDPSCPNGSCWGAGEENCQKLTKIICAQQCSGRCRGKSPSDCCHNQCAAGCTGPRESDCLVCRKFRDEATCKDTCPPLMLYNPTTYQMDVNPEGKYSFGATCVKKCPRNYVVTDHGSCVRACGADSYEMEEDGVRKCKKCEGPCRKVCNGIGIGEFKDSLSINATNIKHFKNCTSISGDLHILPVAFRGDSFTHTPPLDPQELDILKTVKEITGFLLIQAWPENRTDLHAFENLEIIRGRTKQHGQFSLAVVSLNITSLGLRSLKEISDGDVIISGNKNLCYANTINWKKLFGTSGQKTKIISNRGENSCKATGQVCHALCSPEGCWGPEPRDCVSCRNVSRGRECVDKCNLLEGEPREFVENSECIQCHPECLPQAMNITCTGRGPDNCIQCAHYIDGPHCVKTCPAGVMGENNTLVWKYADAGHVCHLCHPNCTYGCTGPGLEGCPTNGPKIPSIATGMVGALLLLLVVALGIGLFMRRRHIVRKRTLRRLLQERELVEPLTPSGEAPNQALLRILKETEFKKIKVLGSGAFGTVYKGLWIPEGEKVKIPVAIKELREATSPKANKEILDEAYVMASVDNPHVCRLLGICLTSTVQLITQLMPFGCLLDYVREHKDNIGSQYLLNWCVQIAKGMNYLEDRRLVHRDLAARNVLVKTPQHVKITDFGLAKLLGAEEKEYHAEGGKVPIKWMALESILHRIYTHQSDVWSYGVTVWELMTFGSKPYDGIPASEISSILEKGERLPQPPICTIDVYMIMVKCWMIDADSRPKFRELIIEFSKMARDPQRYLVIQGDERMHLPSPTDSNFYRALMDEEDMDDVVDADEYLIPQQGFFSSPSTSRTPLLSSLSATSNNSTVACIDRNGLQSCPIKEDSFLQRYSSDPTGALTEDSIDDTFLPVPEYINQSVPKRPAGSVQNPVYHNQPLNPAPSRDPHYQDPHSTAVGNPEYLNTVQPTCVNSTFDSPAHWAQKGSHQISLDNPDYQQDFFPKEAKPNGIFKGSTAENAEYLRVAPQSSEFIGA
Fibroblast growth factor receptor 1, sequence (P11362 22-822 limits assumed): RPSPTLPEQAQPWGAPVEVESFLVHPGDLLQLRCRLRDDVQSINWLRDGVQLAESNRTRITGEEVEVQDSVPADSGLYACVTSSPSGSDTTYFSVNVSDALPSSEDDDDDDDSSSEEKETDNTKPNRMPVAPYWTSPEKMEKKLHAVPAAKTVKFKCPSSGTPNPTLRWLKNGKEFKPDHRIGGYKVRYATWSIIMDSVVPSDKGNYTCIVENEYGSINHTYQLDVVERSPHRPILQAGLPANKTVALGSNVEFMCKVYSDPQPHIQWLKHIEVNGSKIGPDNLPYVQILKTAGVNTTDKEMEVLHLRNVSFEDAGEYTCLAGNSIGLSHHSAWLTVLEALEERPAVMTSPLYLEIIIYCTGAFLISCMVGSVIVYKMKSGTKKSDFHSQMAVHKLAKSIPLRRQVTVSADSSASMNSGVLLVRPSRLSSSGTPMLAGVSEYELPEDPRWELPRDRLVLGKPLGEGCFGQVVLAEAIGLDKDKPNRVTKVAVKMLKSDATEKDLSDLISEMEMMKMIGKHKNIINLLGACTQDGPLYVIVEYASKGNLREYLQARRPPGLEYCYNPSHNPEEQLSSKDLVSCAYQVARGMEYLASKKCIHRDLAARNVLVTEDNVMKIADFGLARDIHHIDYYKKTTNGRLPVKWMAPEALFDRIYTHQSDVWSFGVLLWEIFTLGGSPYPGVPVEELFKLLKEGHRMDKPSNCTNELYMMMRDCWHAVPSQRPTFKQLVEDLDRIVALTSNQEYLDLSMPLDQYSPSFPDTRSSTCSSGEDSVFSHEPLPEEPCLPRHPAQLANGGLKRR
Hepatocyte growth factor receptor (Homo sapiens), sequence (P08581 whole entry, the tested form may be a part): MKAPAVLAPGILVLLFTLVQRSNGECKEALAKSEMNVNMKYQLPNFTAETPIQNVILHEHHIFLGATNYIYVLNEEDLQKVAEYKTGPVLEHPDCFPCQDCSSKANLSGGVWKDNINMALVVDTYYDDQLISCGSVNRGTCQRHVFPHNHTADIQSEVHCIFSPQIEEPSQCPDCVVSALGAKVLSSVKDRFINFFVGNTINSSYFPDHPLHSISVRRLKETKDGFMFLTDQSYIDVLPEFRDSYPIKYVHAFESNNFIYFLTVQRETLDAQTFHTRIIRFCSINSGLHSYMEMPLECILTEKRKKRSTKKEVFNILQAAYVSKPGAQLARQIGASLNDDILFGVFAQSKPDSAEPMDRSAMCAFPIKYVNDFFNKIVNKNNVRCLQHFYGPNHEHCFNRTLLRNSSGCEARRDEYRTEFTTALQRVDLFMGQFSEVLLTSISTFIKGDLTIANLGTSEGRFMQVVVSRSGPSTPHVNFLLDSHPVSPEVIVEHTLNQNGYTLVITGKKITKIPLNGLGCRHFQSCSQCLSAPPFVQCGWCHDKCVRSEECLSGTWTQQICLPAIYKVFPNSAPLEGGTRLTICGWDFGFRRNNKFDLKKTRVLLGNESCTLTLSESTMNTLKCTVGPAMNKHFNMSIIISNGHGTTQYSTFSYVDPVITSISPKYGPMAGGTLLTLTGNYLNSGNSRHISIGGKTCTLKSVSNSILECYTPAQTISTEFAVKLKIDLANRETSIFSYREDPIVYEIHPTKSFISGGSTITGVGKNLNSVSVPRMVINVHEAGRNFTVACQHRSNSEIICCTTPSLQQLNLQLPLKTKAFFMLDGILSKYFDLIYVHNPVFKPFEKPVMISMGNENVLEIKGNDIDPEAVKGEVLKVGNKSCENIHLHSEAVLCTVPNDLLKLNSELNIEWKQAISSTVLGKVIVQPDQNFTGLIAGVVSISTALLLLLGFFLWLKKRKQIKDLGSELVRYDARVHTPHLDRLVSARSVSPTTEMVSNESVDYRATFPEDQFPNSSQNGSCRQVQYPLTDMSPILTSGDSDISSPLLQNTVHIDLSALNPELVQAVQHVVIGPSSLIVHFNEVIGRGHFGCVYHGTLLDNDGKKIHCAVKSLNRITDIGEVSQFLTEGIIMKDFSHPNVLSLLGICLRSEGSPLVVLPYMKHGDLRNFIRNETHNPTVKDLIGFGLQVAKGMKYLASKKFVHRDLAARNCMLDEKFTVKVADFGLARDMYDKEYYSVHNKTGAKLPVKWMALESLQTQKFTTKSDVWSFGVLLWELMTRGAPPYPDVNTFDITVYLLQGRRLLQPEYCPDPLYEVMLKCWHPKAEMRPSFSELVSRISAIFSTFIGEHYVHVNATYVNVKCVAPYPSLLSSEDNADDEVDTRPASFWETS

As a reminder, the inhibition is the change of the read-out against control, counted positive when it falls. As usually defined, the half-life is the time needed for the level to fall by half in the phase considered. Read a low half-life as rapid decline. As usually defined, the AUC(0-inf) is the area under the concentration-time curve extrapolated to infinity. High values mean high exposure, low ones low exposure. `COc1ccc(OC)c(Nc2cc(NC(=O)Nc3c(Cl)cccc3Cl)ncn2)c1`: the viability at 1 µM in [1] amounted to 79.5%. Besides, the inhibition in data set [2] is 95.8%; in data set [6], 4.4%; in data set [7], 22.3%; in data set [8], -0.39%; in the data set listed under Homo sapiens, “Dose-dependent effect”. In addition, in data set [3], the half-life was 7.07 h. Besides, the inhibition entry in data set [4] and in data set [12] was “Active” throughout. Further, in the data set with NCI-H226 [5], the viability at 5 µM turned out to be 79.6%. Moreover, the outcome in the data set with NCI-H226 [9] was Active. Moreover, the AUC(0-inf) in [10] was 13000 ng·h/mL. For the same compound, in [11], the viability at 2.5 µM is 79.5%. In the data set on NCI-H226 [13], the viability at 10 µM was 71.9%.
